Experimental data reported in EP0348513A1, “STYRENE DERIVATIVE, POLYSTYRENE DERIVATIVE COMPRISING THE SAME, PROCESS FOR PREPARING SAID POLYSTYRENE DERIVATIVE, AND ULTRAVIOLET ABSORBER COMPRISING SAID STYRENE DERIVATIVE OR POLYSTYRENE DERIVATIVE” (Earth Chemical Co., Ltd., priority 1987, dated 1989).
Where “and” joins values, the source holds several entries; their conditions need not be identical. Equal values may be shown once.

How the values were obtained:
[1] = Ultraviolet absorption spectrum (spectrophotometer, quartz cell, optical path 10 mm); format: physicochemical
Description: The measurement was carried out by using a spectrophotometer (UV-200S, made by SHIMADZU CORPORATION) as an ethanol solution of the sample having a suitable concentration with a quartz cell having an optical path of 10 mm. Also, the wavelength at the maximum absorption and the molar extinction coefficient were found from the results of the measurement as the ultraviolet absorptive properties. The results are shown below. • Wavelength at the maximum absorption: 332 nm Molar extinction coefficient: 44,000
The measurement was carried out by using a spectrophotometer (UV-200S, made by SHIMADZU CORPORATION), as a dimethylformamide solution of the sample having a suitable concentration and with a quartz cell having an optical path of 10 mm.
The measurement was carried out by using a spectrophotometer (UV-200S, made by SHIMADZU CORPORATION), as a dimethylformamide solution of the sample having a suitable concentration, with a quartz cell having an optical path of 10 mm.

[2] = Transmittance of ultraviolet rays through a coated polyethylene sheet; format: physicochemical; settings: wavelength of 330 nm
Description: There was dissolved 2.8 g of p-vinylbenzaldehyde 4-carboxymethyl-2-methylthiosemicarbazone in 1.5 g of triethanolamine and 23.7 g of water. The solution was applied onto a polyethylene sheet having a thickness of 0.5 mm (which was prepared in the same manner as the preparation process for the'control pieces in Example 11) in an amount of 2.0 mg/cm^2, and dried at room temperature to give a ultraviolet absorbent sheet.
The obtained ultraviolet absorbent sheet and untreated polyethylene sheet were cut into pieces having a size of 1 cm X 4 cm, respectively. The untreated polyethylene sheet was used as control piece, and transmittance of ultraviolet rays at a wavelength of 330 nm was measured by using a spectrophotometer. As the result, the transmittance of ultraviolet rays of the ultraviolet absorbent sheet was not more than 0.1 %. Accordingly, it was confirmed that not less than 99.9 % of ultraviolet rays were absorbed under the above condition.

guinea pigs = assay: Sunscreen effect against ultraviolet irradiation of the skin; format: in vivo; settings: sunscreen ointment or lotion containing the derivative, about 2 mg per 1 cm^2, ultraviolet rays 10 minutes, judged after 24 hours with the naked eyes; control area turned red
Description: (§1) Hair of. the notal of three guinea pigs was cut, and the drug (ointment) was applied in an amount of about 2 mg per 1 cm^2. Then, ultraviolet rays were irradiated for 10 minutes by a fluorescent light (FL-20SE, made by TOSHIBA CORPORATION) from a height of 10 cm from the notal.. On the other hand, as a control area, a base prepared without mixing the sunscreening agent was applied, and treatments were carried out in the same manner as.above. The judgement was conducted after 24 hours with the naked eyes.
as §1, with “of” for “of.”, “cm^2..” for “cm^2.”, “notal.” for “notal..”, “as above.” for “as.above.”

skin of a quinea pig = assay: Percutaneous absorption, Franz diffusion cell; format: in vitro ADME; settings: 1 % aqueous solution, 33°C, 20 hours
Description: The skin of a quinea pig was peeled, washed with physiological saline and then set in a percutaneous absorption apparatus which was made in accordance with the description in Franz, T. J, J. Invest, Dermatol, 64, 190, 1975, by using a diffusion cell. The sample room was filled with 0.5 mi of a 1 % aqueous solution of the polystyrene derivative, and the acceptor was filled with physiological saline. After maintaining at 33°C for 20 hours while stirring with a magnetic stirrer, the physiological saline in the acceptor was taken out, and the ultraviolet absorbency was measured. In the same manner as above, ultraviolet absorbency was measured, using water alone as a negative control substance and a 1 % aqueous solution of p-aminobenzoic acid as a positive control substance. […] To the contrary, the spectrum of the positive control substance was shown the corresponding to an amount of 87.0 ppm of the compound.
The skin of a quinea pig was peeled, washed with physiological saline and then set in a percutaneous absorption apparatus which was made in accordance with the description in Franz, T. J, J. Invest, Dermatol, 64, 190, 1975, by using a diffusion cell. […] After maintaining at 33°C for 20 hours while stirring with a magnetic stirrer, the physiological saline in the acceptor was taken out, and the ultraviolet absorbency was measured. […]

[3] = commercially available sunscreening agent, at the first (shorter) maximum
[4] = commercially available sunscreening agent, at the second (longer) maximum
[5] = commercially available sunscreening agent, first (shorter) maximum
[6] = commercially available sunscreening agent, second (longer) maximum
[7] = ethanol solution, at the maximum absorption
[8] = N,N-dimethylformamide solution, at the maximum absorption
[9] = commercially available sunscreening agent, solvent not stated

SMILES	Wavelength at the maximum absorption ([1]; ethanol solution) [nm]	Molar extinction coefficient [1, 7]	further results
Cc1ccc(O)c(-n2nc3ccccc3n2)c1 [2-(2'-hydroxy-5'-methylphenylbenzotriazole), reference compound]	–	–	molar extinction coefficients [1, 3]: 12,000; molar extinction coefficients [1, 4]: 13,000; wavelengths at the maximum absorption [1, 5]: 297 nm; wavelengths at the maximum absorption [1, 6]: 337 nm
COc1ccc(C(=O)c2ccccc2)c(O)c1 [2-hydroxy-4-methoxybenzophenone, reference compound]	–	–	molar extinction coefficients [1, 3]: 13,000; molar extinction coefficients [1, 4]: 8,200; wavelengths at the maximum absorption [1, 5]: 287 nm; wavelengths at the maximum absorption [1, 6]: 326 nm
C=Cc1ccc(C=NN(C)C(=S)NCC(=O)OC)cc1 [Example 1, p-vinylbenzaldehyde 4-methoxycarbonylmethyl-2-methylthiosemicarbazone]	332	44,000	–
C=Cc1ccc(C=NN(C)C(=S)NCC(=O)O)cc1 [Example 2, p-vinylbenzaldehyde 4-carboxymethyl-2-methylthiosemicarbazone]	332	44,000	ultraviolet rays absorbed ([2]; same coated sheet): not less than 99.9%; transmittance of ultraviolet rays ([2]; triethanolamine/water solution applied at 2.0 mg/cm^2 on 0.5 mm polyethylene sheet): not more than 0.1%
C=Cc1ccc(C=NN(C)C(=O)NCC(=O)OCC)cc1 [Example 3, p-vinylbenzaldehyde 4-ethoxy carbonylmethyl-2-methylsemicarbazone]	311	33,000	sunscreen effect (color of the applied area compared with an area not irradiated) (guinea pigs): the color in the area on which the sunscreen lotion was applied was not changed
C=Cc1ccc(C=NN(CC(=O)O)C(=S)NC)cc1 [Example 4, vinylbenzaldehyde 2-carboxymethyl-4-methylthiosemicarbazone]	315	34,000	–
C=Cc1ccc(C=NN(CCCC(=O)O)C(=S)NC)cc1 [Example 5, p-vinylbenzaldehyde 2-(y-carboxypropyl)-4-methylthiosemicarbazone]	332	38,000	–
C=Cc1ccc(C=NN(CC(=O)OCC)C(=S)N(C)C)cc1 [Example 6, p-vinylbenzaldehyde 2-ethoxycarbonylmethyl-4,4-dimethylthiosemicarbazone]	381	34,000	–
C=Cc1ccc(C=NN(C)C(=S)NC)cc1 [Example 7, vinylbenzaldehyde 2,4-dimethylthiosemicarbazone]	315	34,000	–
C=Cc1ccc(C=NN(C)C(=S)N(C)C)cc1 [Example 8, p-vinylbenzaldehyde 2,4,4-trimethylthiosemicarbazone]	331	29,000	–
C=Cc1ccc(C=NN(CCO)C(=S)NC)cc1 [Example 9, p-vinylbenzaldehyde 2-(β-hydroxyethyl)-4-methylthiosemicarbazone]	322	40,000	–
C=Cc1ccc(C=NN(C(=S)NC)c2ccccc2)cc1 [Example 11, p-vinylbenzaldehyde 4-methyl-2-phenylthiosemicarbazone]	–	–	Wavelength at the maximum absorption ([1]; N,N-dimethylformamide solution): 335 nm; Molar extinction coefficient [1, 8]: 38,000
C=Cc1ccc(C=NN(C)C(=S)Nc2ccccc2)cc1 [Example 12, p-vinylbenzaldehyde 2-methyl-4-phenylthiosemicarbazone]	–	–	Wavelength at the maximum absorption ([1]; N,N-dimethylformamide solution): 338 nm; Molar extinction coefficient [1, 8]: 40,000
CC1CC(OC(=O)c2ccccc2O)CC(C)(C)C1 (stereo not drawn) [homomenthyl salicylate, reference compound]	–	–	Molar extinction coefficient [1, 9]: 4,400; Wavelength at the maximum absorption [1, 9]: 308 nm
Nc1ccc(C(=O)O)cc1 [p-aminobenzoic acid]	–	–	amount of the compound in the acceptor corresponding to the spectrum (skin of a quinea pig): 87.0 ppm and 93.0 ppm
